From US20090226544A1, “Pharmaceutical Compound For Treating Inflammation, Pain, Arthritis And Spinitis, And Proliferating Osteoblastic Cell And Method For Producing Thereof” (priority 2005, published 2009)

Experiments:
Assay type in all cases: in vivo
SD male albino rats [1] = experiment: Carrageenan-induced hind paw edema, Example 4 at 30-600 mg/kg (Experimental Example 4)
Method: (§1) SD male albino rats weighing 150 to 170 g, which were fasted for 16 hours before experimental use, were used as test animals to induce edema by subcutaneously injecting 0.1 ml of a 1% type IV lambda carrageenan-saline solution as a […] to the subplantar of the right hind paw of each of the albino rats (Winter et al., 1962). The paw volume was measured with a plethysmometer (Ugo Basile, Italy) 0.5, 1, 2, 4 and 6 hours after injection of carrageenan and compared with the paw volume measured before injection of carrageenan for calculation of an increase (%) of paw volume. In addition, an increase (%) of paw volume for a control group was compared with increases (%) of paw volume for treatment groups for obtaining a reduction ratio (%) of paw volume. The pharmaceutical compositions prepared in Examples 1 through 4 were orally administered to the […] 30 minutes before injection of carrageenan. The extent of paw edema (or swelling) was obtained based on the edema enhancement rate and edema inhibition rate measured using the following relationship. […] Phenylbutazone was used as a positive control. In order to examine the inhibitory effect of the pharmaceutical composition prepared in Example 4 of the present invention on acute inflammation induced by carrageenan, […] Experimental Example 1 and the results are summarized in Table 4.

SD male albino rats [2] = experiment: Carrageenan-induced hind paw edema, Example 4 administered for 2 weeks (Experimental Example 5); settings: dose 5 mg/kg, 2-week test
Method: as §1, with “4. […]” for “4.”

SD male albino rats [3] = experiment: as above; settings: dose 5 mg/kg; 2-week test; 2 h after carrageenan
SD male albino rats [4] = experiment: Acute inflammation test by carrageenan-induced hind paw edema, composition given 30 minutes before carrageenan (Experimental Example 1); settings: dose 50 mg/kg oral
Method: (§2) SD male albino rats weighing 150 to 170 g, which were fasted for 16 hours before experimental use, were used as test animals to induce edema by subcutaneously injecting 0.1 ml of a 1% type IV lambda carrageenan-saline solution as a […] to the subplantar of the right hind paw of each of the albino rats (Winter et al., 1962). The paw volume was measured with a plethysmometer (Ugo Basile, Italy) 0.5, 1, 2, 4 and 6 hours after injection of carrageenan and compared with the paw volume measured before injection of carrageenan for calculation of an increase (%) of paw volume. In addition, an increase (%) of paw volume for a control group was compared with increases (%) of paw volume for treatment groups for obtaining a reduction ratio (%) of paw volume. […] The extent of paw edema (or swelling) was obtained based on the edema enhancement rate and edema inhibition rate measured using the following relationship.

SD male albino rats [5] = experiment: Acute inflammation test by carrageenan-induced hind paw edema after 2 weeks of administration (Experimental Example 2); settings: dose 50 mg/kg, 2-week test
Method: as §2

ICR male mice = experiment: Analgesic effect test, acetic acid-induced writhing (Experimental Example 3); settings: dose 50 mg/kg oral
Method: The pharmaceutical compositions prepared in Examples 1 through 4 were orally administered to ICR (Institute of Cancer Research) male mice weighing 25 to 28 g, which were fasted for 12 hours before experimental use. After 30 minutes of administration, 0.7% acetic acid-saline solution was intraperitoneally injected to the mice in a dose of […] per 10 g of body weight and from 5 minutes after administration, the number of writhings occurring to each mouse was counted for 10 minutes (Koster et al., 1959) and the results are summarized in Table 3. Phenylbutazone was used as a positive control.

Row | SMILES | Increased percent of paw volume (%) (SD male albino rats [1]; 0.5 h after carrageenan) | reduction ratio (%) of paw volume vs control (SD male albino rats [1]; 0.5 h after carrageenan) | Increased percent of paw volume (%) (SD male albino rats [1]; 1 h after carrageenan) | reduction ratio (%) of paw volume vs control (SD male albino rats [1]; 1 h after carrageenan) | Increased percent of paw volume (%) (SD male albino rats [1]; 2 h after carrageenan) | reduction ratio (%) of paw volume vs control (SD male albino rats [1]; 2 h after carrageenan) | Increased percent of paw volume (%) (SD male albino rats [1]; 4 h after carrageenan) | reduction ratio (%) of paw volume vs control (SD male albino rats [1]; 4 h after carrageenan) | Increased percent of paw volume (%) (SD male albino rats [1]; 6 h after carrageenan) | reduction ratio (%) of paw volume vs control (SD male albino rats [1]; 6 h after carrageenan) | Increased percent of paw volume (%) (SD male albino rats [2]; 0.5 h after carrageenan) | reduction ratio (%) of paw volume vs control (SD male albino rats [2]; 0.5 h after carrageenan) | Increased percent of paw volume (%) (SD male albino rats [2]; 1 h after carrageenan) | reduction ratio (%) of paw volume vs control (SD male albino rats [2]; 1 h after carrageenan) | reduction ratio (%) of paw volume vs control (SD male albino rats [2]; 2 h after carrageenan) | Increased percent of paw volume (%) (SD male albino rats [2]; 4 h after carrageenan) | reduction ratio (%) of paw volume vs control (SD male albino rats [2]; 4 h after carrageenan) | Increased percent of paw volume (%) (SD male albino rats [2]; 6 h after carrageenan) | reduction ratio (%) of paw volume vs control (SD male albino rats [2]; 6 h after carrageenan) | Increased percent of paw volume (%) (SD male albino rats [3]) | also measured
1 | O=C(O)COC(=O)Cc1ccccc1Nc1c(Cl)cccc1Cl [Aceclofenac, aceclofenac] | 12.1 ± 2.6% | 34.8% | 12.1 ± 3.5 % | 53.7% | 16.7 ± 3.0 % | 58.7% | 36.9 ± 5.1 % | 56.1% | 50.6 ± 3.9 % | 31.5% | 10.1 ± 1.4 % | 62.6% | 15.1 ± 1.7 % | 51.4% | 59.2% | 55.3 ± 3.9 % | 29.4% | 61.0 ± 3.5% | 19.4% | 19.7 ± 2.0 % | –
2 | O=C(O)Cc1ccccc1Nc1c(Cl)cccc1Cl [Diclofenac, diclofenac] | 9.6 ± 1.6 % | 47.5% | 13.6 ± 2.6 % | 48.0% | 17.7 ± 3.1 % | 56.3% | 37.24 ± 5.9 % | 55.7% | 34.89 ± 2.8 % | 52.8% | 12.0 ± 1.8 % | 55.5% | 13.7 ± 1.4 % | 55.6% | 54.4% | 49.2 ± 3.9 % | 37.1% | 51.8 ± 4.0 % | 31.50% | 22.0 ± 2.0 % | –
3 | CCCCC1C(=O)N(c2ccccc2)N(c2ccccc2)C1=O [Phenylbutazone, phenylbutazone] | – | – | – | – | – | – | – | – | – | – | – | – | – | – | – | – | – | – | – | – | Increased percent of paw volume (%) (SD male albino rats [4]; 1 h after carrageenan): 14.0 ± 0.9 %; Increased percent of paw volume (%) (SD male albino rats [4]; 2 h after carrageenan): 25.0 ± 3.7 %; Increased percent of paw volume (%) (SD male albino rats [4]; 4 h after carrageenan): 37.8 ± 4.3%; Increased percent of paw volume (%) (SD male albino rats [4]; 6 h after carrageenan): 35.0 ± 2.4 %; Increased percent of paw volume (%) (SD male albino rats [5]; 1 h after carrageenan): 13.2 ± 0.8 %; Increased percent of paw volume (%) (SD male albino rats [5]; 2 h after carrageenan): 19.3 ± 2.4 %; Increased percent of paw volume (%) (SD male albino rats [5]; 4 h after carrageenan): 39.1 ± 5.0 %; Increased percent of paw volume (%) (SD male albino rats [5]; 6 h after carrageenan): 35.0 ± 2.4 %; Number of writhing (ICR male mice; counted for 10 minutes): 12.3 ± 0.9; Inhibition rate (%) (ICR male mice; writhing): 50.1%
